Data taken from patent US9845321B2, “1,3-dihydro-2H-benzimidazol-2-one derivatives substituted with heterocycles as respiratory syncytial virus antiviral agents” (JANSSEN SCIENCES IRELAND UC, priority 2012, dated 2017).

Tests used:
rgRSV224 virus = experiment: Antiviral activity: rgRSV224 (GFP-expressing RSV) replication in HeLa cells, GFP expression measured three days post-virus exposure; type: cell-based; settings: human respiratory syncytial virus, 72 h, read-out: WT activity pEC50 (converted)
Procedure: (§1) Black 96-well clear-bottom microtiter plates (Corning, Amsterdam, The Netherlands) were filled in duplicate using a customized robot system with serial 4-fold dilutions of compound in a final volume of 50 μl culture medium [RPMI medium without phenol red, 10% FBS, 0.04% gentamycin (50 mg/ml) and 0.5% DMSO]. Then, 100 μl of a HeLa cell suspension (5×10^4 cells/ml) in culture medium was added to each well followed by the addition of 50 μl rgRSV224 (MOI=0.02) virus in culture medium using a multidrop dispenser (Thermo Scientific, Erembodegem, Belgium). rgRSV224 virus is an engineered virus that includes an additional GFP gene (Hallak et al, 2000) and was in-licensed from the NIH (Bethesda, Md., USA). Medium, virus- and mock-infected controls were included in each test. Cells were incubated at 37° C. in a 5% CO2 atmosphere. Three days post-virus exposure, viral replication was quantified by measuring GFP expression in the cells by a MSM laser microscope (Tibotec, Beerse, Belgium). The EC50 was defined as the 50% inhibitory concentration for GFP expression. In parallel, compounds were incubated for three days in a set of white 96-well microtitier plates (Corning) and the cytotoxicity of compounds in HeLa cells was determined by measuring the ATP content of the cells using the ATPlite kit (PerkinElmer, Zaventem, Belgium) according to the manufacturer's instructions. The CC50 was defined as the 50% concentration for cytotoxicity.

in vitro = type: cell-based; settings: human
Procedure: as §1

Row | SMILES | EC50 (rgRSV224 virus) | CC50 at 3 days (in vitro)
1 | Cn1ccnc1-n1c(=O)n(Cc2cc3cc(Cl)ccc3n2CCCC#N)c2cnccc21 [Compound P33, 4-(5-chloro-2-((1-(1-methyl-1H-imidazol-2-yl)-2-oxo-1H-imidazo[4,5-c]pyridin-3(2H)-yl)methyl)-1H-indol-1-yl)butanenitrile] | 10 nM | > 100000 nM
2 | COc1ccc(-n2c(=O)n(Cc3cc4cc(Cl)ccc4n3CCCC#N)c3cnccc32)cc1 [Compound P14, 4-(5-chloro-2-((1-(4-methoxyphenyl)-2-oxo-1H-imidazo[4,5-c]pyridin-3(2H)-yl)methyl)-1H-indol-1-yl)butanenitrile] | 0.398 nM | 12600 nM
3 | N#CCCCn1c(Cn2c(=O)n(-c3ccncc3F)c3ccncc32)cc2cc(Cl)ccc21 [Compound P42, 4-(5-chloro-2-((1-(3-fluoropyridin-4-yl)-2-oxo-1H-imidazo[4,5-c]pyridin-3(2H)-yl)methyl)-1H-indol-1-yl)butanenitrile] | 0.316 nM | > 100000 nM
4 | N#CCCCn1c(Cn2c(=O)n(-c3ccc(OC(F)(F)F)cc3)c3ccncc32)cc2cc(Cl)ccc21 [Compound P29, 4-(5-chloro-2-((2-oxo-1-(4-(trifluoromethoxy)phenyl)-1H-imidazo[4,5-c]pyridin-3(2H)-yl)methyl)-1H-indol-1-yl)butanenitrile] | 1.26 nM | > 100000 nM
5 | Cc1ccc(-n2c(=O)n(Cc3cc4cc(Cl)ccc4n3CCCC#N)c3cnccc32)cc1 [Compound P46, 4-(5-chloro-2-((2-oxo-1-p-tolyl-1H-imidazo[4,5-c]pyridin-3(2H)-yl)methyl)-1H-indol-1-yl)butanenitrile] | 1.26 nM | > 100000 nM
6 | CS(=O)(=O)c1ccc(-n2c(=O)n(Cc3cc4cc(Cl)ccc4n3CCCC#N)c3cnccc32)cc1 [Compound P41, 4-(5-chloro-2-((1-(4-(methylsulfonyl)phenyl)-2-oxo-1H-imidazo[4,5-c]pyridin-3(2H)-yl)methyl)-1H-indol-1-yl)butanenitrile] | 0.2 nM | > 100000 nM
7 | COc1ccc(-n2c(=O)n(Cc3cc4cc(Cl)ccc4n3CCCC#N)c3cnccc32)c(F)c1 [Compound P45, 4-(5-chloro-2-((1-(2-fluoro-4-methoxyphenyl)-2-oxo-1H-imidazo[4,5-c]pyridin-3(2H)-yl)methyl)-1H-indol-1-yl)butanenitrile] | 1 nM | 15800 nM
8 | N#CCCCn1c(Cn2c(=O)n(-c3nccs3)c3ccncc32)cc2cc(Cl)ccc21 [Compound P49, 4-(5-chloro-2-((2-oxo-1-(thiazol-2-yl)-1H-imidazo[4,5-c]pyridin-3(2H)-yl)methyl)-1H-indol-1-yl)butanenitrile] | 6.31 nM | > 25100 nM
9 | N#CCCCn1c(Cn2c(=O)n(-c3ccc4ncccc4c3)c3ccncc32)cc2cc(Cl)ccc21 [Compound P43, 4-(5-chloro-2-((2-oxo-1-(quinolin-6-yl)-1H-imidazo[4,5-c]pyridin-3(2H)-yl)methyl)-1H-indol-1-yl)butanenitrile] | 0.398 nM | > 100000 nM
10 | N#CCCCn1c(Cn2c(=O)n(-c3ccc(C(=O)NC4CC4)cc3)c3ccncc32)cc2cc(Cl)ccc21 [Compound P53, 4-(3-((5-chloro-1-(3-cyanopropyl)-1H-indol-2-yl)methyl)-2-oxo-2,3-dihydro-1H-imidazo[4,5-c]pyridin-1-yl)-N-cyclopropylbenzamide] | 0.501 nM | 25100 nM
11 | COc1ccc(-n2c(=O)n(Cc3nc4nc(Cl)ccc4n3CCC(C)C)c3cnccc32)cc1 [Compound P16, 3-((5-chloro-1-isopentyl-1H-imidazo[4,5-b]pyridin-2-yl)methyl)-1-(4-methoxyphenyl)-1H-imidazo[4,5-c]pyridin-2(3H)-one] | 1 nM | > 50100 nM
12 | N#CCCCn1c(Cn2c(=O)n(-c3ccncc3)c3ccc(F)cc32)cc2cc(Cl)ccc21 [Compound P40, 4-(5-chloro-2-((6-fluoro-2-oxo-3-(pyridin-4-yl)-2,3-dihydro-1H-benzo[d]imidazol-1-yl)methyl)-1H-indol-1-yl)butanenitrile] | – | > 100000 nM
13 | O=c1n(Cc2cc3cc(Cl)ccc3n2CCCCF)c2cnccc2n1-c1ccc2ncccc2c1 [Compound P31, 3-((5-chloro-1-(4-fluorobutyl)-1H-indol-2-yl)methyl)-1-(quinolin-6-yl)-1H-imidazo[4,5-c]pyridin-2(3H)-one] | 1.58 nM | > 100000 nM
14 | COc1ccc(-n2c(=O)n(Cc3cc4cc(Cl)ccc4n3CCCC#N)c3cnccc32)cc1F [Compound P15, 4-(5-chloro-2-((1-(3-fluoro-4-methoxyphenyl)-2-oxo-1H-imidazo[4,5-c]pyridin-3(2H)-yl)methyl)-1H-indol-1-yl)butanenitrile] | 1 nM | > 100000 nM
15 | COc1ccc(-n2c(=O)n(Cc3cc4cc(Cl)ccc4n3CCCC#N)c3cnccc32)c(OC)c1 [Compound P47, 4-(5-chloro-2-((1-(2,4-dimethoxyphenyl)-2-oxo-1H-imidazo[4,5-c]pyridin-3(2H)-yl)methyl)-1H-indol-1-yl)butanenitrile] | 1.58 nM | > 100000 nM
16 | O=c1n(Cc2cc3cc(Cl)ccc3n2CCCCF)c2cnccc2n1-c1ccncc1 [Compound P44, 3-((5-chloro-1-(4-fluorobutyl)-1H-indol-2-yl)methyl)-1-(pyridin-4-yl)-1H-imidazo[4,5-c]pyridin-2(3H)-one] | 1 nM | > 100000 nM
17 | CS(=O)(=O)CCCn1c(Cn2c(=O)n(-c3ccc(Cl)cc3)c3ccncc32)cc2cc(Cl)ccc21 [Compound P30, 3-((5-chloro-1-(3-(methylsulfonyl)propyl)-1H-indol-2-yl)methyl)-1-(4-chlorophenyl)-1H-imidazo[4,5-c]pyridin-2(3H)-one] | 1.58 nM | > 100000 nM
18 | COC(=O)c1ccc(-n2c(=O)n(Cc3cc4cc(Cl)ccc4n3CCCC#N)c3cnccc32)cc1 [Compound P51, methyl 4-(3-((5-chloro-1-(3-cyanopropyl)-1H-indol-2-yl)methyl)-2-oxo-2,3-dihydro-1H-imidazo[4,5-c]pyridin-1-yl)benzoate] | 0.794 nM | 39800 nM
19 | CC(C)CCn1c(Cn2c(=O)n(-c3ccncc3)c3ccncc32)nc2nc(Cl)ccc21 [Compound P23, 3-((5-chloro-1-isopentyl-1H-imidazo[4,5-b]pyridin-2-yl)methyl)-1-(pyridin-4-yl)-1H-imidazo[4,5-c]pyridin-2(3H)-one] | 7.94 nM | > 100000 nM
20 | CC(C)(O)CN1CC(n2c(=O)n(Cc3cc4cc(Cl)ccc4n3CCCS(C)(=O)=O)c3cc(F)ccc32)C1 [Compound P12, 3-((5-chloro-1-(3(methylsulfonyl)propyl)-1H-indol-2-yl)methyl)-5-fluoro-1-(1-(2-hydroxy-2-methylpropyl)azetidin-3-yl)-1H-benzo[d]imidazol-2(3H)-one] | 39.8 nM | 12600 nM
21 | N#CCCCn1c(Cn2c(=O)n(-c3ncccn3)c3ccncc32)cc2cc(Cl)ccc21 [Compound P21, 4-(5-chloro-2-((2-oxo-1-(pyrimidin-2-yl)-1H-imidazo[4,5-c]pyridin-3(2H)-yl)methyl)-1H-indol-1-yl)butanenitrile] | 6.31 nM | > 100000 nM
22 | CC(C)CCn1c(Cn2c(=O)n(C3(C)CC3)c3ccncc32)nc2nc(Cl)ccc21 [Compound P18, 3-((5-chloro-1-isopentyl-1H-imidazo[4,5-b]pyridin-2-yl)methyl)-1-(1-methylcyclopropyl)-1H-imidazo[4,5-c]pyridin-2(3H)-one] | 2 nM | > 100000 nM
23 | CC1(n2c(=O)n(Cc3nc4nc(Cl)ccc4n3CCCC(F)(F)F)c3cnccc32)CC1 [Compound P9, 3-((5-chloro-1-(4,4,4-trifluorobutyl)-1H-imidazo[4,5-b]pyridin-2-yl)methyl)-1-(1-methylcyclopropyl)-1H-imidazo[4,5-c]pyridin-2(3H)-one] | 1 nM | > 100000 nM
24 | N#CCCCn1c(Cn2c(=O)n(-c3ccc(C(=O)O)cc3)c3ccncc32)cc2cc(Cl)ccc21 [Compound P52, 4-(3-((5-chloro-1-(3-cyanopropyl)-1H-indol-2-yl)methyl)-2-oxo-2,3-dihydro-1H-imidazo[4,5-c]pyridin-1-yl)benzoic acid] | 0.501 nM | > 25100 nM
25 | COc1ccc(-n2c(=O)n(Cc3cc4nc(Cl)ccc4n3CCCC(F)(F)F)c3cnccc32)cc1 [Compound P17, 3-((5-chloro-1-(4,4,4-trifluorobutyl)-1H-pyrrolo[3,2-b]pyridin-2-yl)-methyl)-1-(4-methoxyphenyl)-1H-imidazo[4,5-c]pyridin-2(3H)-one] | 10 nM | > 100000 nM
26 | COCCOc1ccc(-n2c(=O)n(Cc3cc4cc(Cl)ccc4n3CCCC#N)c3cnccc32)cc1 [Compound P28, 4-(5-chloro-2-((1-(4-(2-methoxyethoxy)phenyl)-2-oxo-1H-imidazo[4,5-c]pyridin-3(2H)-yl)methyl)-1H-indol-1-yl)butanenitrile] | 0.2 nM | > 100000 nM
